# Results as given in article PMC10449848, “Structural basis of lipid-droplet localization of 17-beta-hydroxysteroid dehydrogenase 13” (Nature Communications, 2023).
# Numbering of substitutions follows the chain as printed. “And” between values parts separate entries of the source, which are not always exact repeats. Identical values can stand only once.
# Key:
# Format in all cases: binding
# dog WT HSD17B13 = biological target: T1, dog WT HSD17B13 (Canis lupus familiaris, UniProt A0A8C0PP93); assay: Thermal shift assay (static light scattering, Tagg), dog WT HSD17B13; conditions: Fig. 6d; 500 μM NAD+
# T1 construct: HSD17B13 (AA1-300, XP_038300006.1); made in house; host or cells: Sf9 (baculovirus)
# T1 sequence (A0A8C0PP93 1-300): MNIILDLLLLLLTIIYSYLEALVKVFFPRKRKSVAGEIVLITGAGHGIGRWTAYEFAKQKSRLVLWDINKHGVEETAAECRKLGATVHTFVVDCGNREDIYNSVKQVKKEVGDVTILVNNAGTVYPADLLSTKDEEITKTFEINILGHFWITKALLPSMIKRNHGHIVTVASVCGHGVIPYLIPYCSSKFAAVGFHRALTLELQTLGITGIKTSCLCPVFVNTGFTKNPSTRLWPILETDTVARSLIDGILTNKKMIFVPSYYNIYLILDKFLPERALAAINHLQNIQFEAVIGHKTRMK
# Excerpt: (§1) To understand ligand binding, we tested several approaches such as surface plasmon resonance and isothermal calorimetry. […] We next turned to thermal shift assays (TSA) for comparing ligand binding affinities. TSA measures the changes in the thermal denaturation temperature of a protein under different conditions such as the presence compound, changes in buffer conditions, or sequence mutations. There are various readouts including intrinsic fluorescence or light scattering signals. We chose the static light scattering methods to detect the temperatures at which our proteins start to aggregate (Tagg), which are more suitable for membrane proteins that require detergent micelles for stability.
# (§2) TSA studies were run on the UNit instrument (Unchained Labs, CA, USA). […] The data was processed using the UNcle software (Unchained Labs, CA, USA), and temperatures at which the protein started aggregation were recorded as Tagg.
# human HSD17B11 = biological target: T2, human HSD17B11 (Homo sapiens, UniProt Q8NBQ5); assay: Thermal shift assay (static light scattering, Tagg), human HSD17B11; conditions: Fig. 6d, 500 μM NAD+
# T2 construct: human HSD17B11 (residues 2-300, NP_057329.3); 10x His (N); TEV protease site (N); made in house; host or cells: Sf9 (baculovirus)
# T2 sequence (Q8NBQ5 2-300): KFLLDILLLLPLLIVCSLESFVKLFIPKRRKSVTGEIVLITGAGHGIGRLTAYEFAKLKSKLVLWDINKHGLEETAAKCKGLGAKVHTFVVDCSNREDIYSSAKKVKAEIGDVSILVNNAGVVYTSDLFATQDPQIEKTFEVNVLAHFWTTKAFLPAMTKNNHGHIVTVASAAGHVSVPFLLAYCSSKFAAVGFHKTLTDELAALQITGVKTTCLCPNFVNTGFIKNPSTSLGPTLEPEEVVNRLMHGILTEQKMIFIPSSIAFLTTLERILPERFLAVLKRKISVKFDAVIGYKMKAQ
# Excerpt: Because of the low enzymatic activities of dog wild-type HSD17B13 (Fig. 6a) and HSD17B11 with β-estradiol, it was difficult to measure compound inhibition of these proteins in a biochemical assay and we instead utilized direct binding methods to compare compounds interaction with different proteins. To understand ligand binding, we tested several approaches such as surface plasmon resonance and isothermal calorimetry. Like many membrane/detergent-associated proteins, however, these methods were not amenable for HSD17B13. We next turned to thermal shift assays (TSA) for comparing ligand binding affinities. TSA measures the changes in the thermal denaturation temperature of a protein under different conditions such as the presence compound, changes in buffer conditions, or sequence mutations. There are various readouts including intrinsic fluorescence or light scattering signals. We chose the static light scattering methods to detect the temperatures at which our proteins start to aggregate (Tagg), which are more suitable for membrane proteins that require detergent micelles for stability. Given that in theory[51] and in practice Tagg continues to increase with concentration of ligands far above their IC50s, we used high cofactor and inhibitor concentrations in the TSA experiments to maximize the ligand binding signal.
# TSA studies were run on the UNit instrument (Unchained Labs, CA, USA). Experiments were run in either 25 mM sodium phosphate pH 7, 150 mM NaCl, 10% glycerol, 1 mM TCEP, 0.05% DDM, + different cofactors (NAD^+, NADH, NADP, NADPH; MilliporeSigma) or 25 mM HEPES pH 7.2, 300 mM NaCl, 0.5 mM TCEP, 0.05% DDM, 10% glycerol, ±500 µM NAD^+, and ±100 µM compound 1 (from 2 mM DMSO stock) or DMSO or 50 mM Hepes pH 7.5, 300 mM NaCl, 0.5 mM TCEP, 0.05% DDM, 500 µM NAD^+, ± 50 µM compounds (from 2 mM stock) or DMSO. Protein aggregation was measured by static light scattering at 266 and 473 nm with a 1 °C/sec ramp rate from 20-80 °C. The data was processed using the UNcle software (Unchained Labs, CA, USA), and temperatures at which the protein started aggregation were recorded as Tagg. Reported Tagg and analysis were based on measurements at 266 nm unless otherwise indicated. The protein concentration used was 10.4 μM.
# [1] = biological target: T3, dog mutant HSD17B13 (G177E/V178G/T205A/I293V) (Canis lupus familiaris, UniProt A0A8C0PP93, G177E/I293V/T205A/V178G); assay: Thermal shift assay (static light scattering, Tagg), dog mutant HSD17B13; conditions: Fig. 6d, 500 μM NAD+
# T3 construct: HSD17B13 (AA1-300, XP_038300006.1); made in house; host or cells: Sf9 (baculovirus)
# T3 sequence (A0A8C0PP93 1-300 G177E/V178G/T205A/I293V): T1 sequence (A0A8C0PP93 1-300) with G177E, V178G, T205A, I293V
# Excerpt: as §1, §2
smiles,measurement,setting,value
O=C(NC[C@]1(O)CC[C@H](COc2ccccc2F)CC1)c1ccc(O)c(F)c1 [Compound 1],stabilization in TSA,dog WT HSD17B13,Neither 1 nor 2 stabilized dog WT HSD17B13 significantly
same,effect on protein stability in TSA,human HSD17B11,neither 1 nor 2 showed an effect on protein stability
same,Tagg,human HSD17B11; 50 µM compound,37.65 °C and 35.79 °C and 38.54 °C and 39 °C and 39.99 °C and 38.79 °C and 39.64 °C and 38.95 °C
same,binding in TSA,[1],bound compound 1 strongly
same,Tagg,[1]; 50 µM compound,46.8 ± 2.2 °C
